Results published in ChEMBL document CHEMBL4680171, “Oxadiazolylthiazoles as novel and selective antifungal agents” (Eur J Med Chem, 2020).
≈ marks a conversion by molar mass, not a printed value. Calls of active or inactive are those of the source. The calls are words filed in the database; no cut-off is given here.

Legend:
Cryptococcus neoformans [1] = test: Antifungal activity against Cryptococcus neoformans NR41300 assessed as reduction in fungal growth incubated for 48 hrs by CLSI based broth microdilution method; assay type: functional
Candida albicans [2] = test: Antifungal activity against Candida albicans SS5314 assessed as reduction in fungal growth measured after 10 passages by CLSI based broth microdilution method; assay type: functional, organism-based
[3] = Selectivity index, ratio of CC50 for African green monkey Vero cells to MIC for antifungal activity against Candida parapsilosis CAB 502638; assay type: toxicity; conditions: read-out: Selectivity Index
Lactobacillus crispatus = test: Antibacterial activity against Lactobacillus crispatus HM-370 assessed as reduction in bacterial growth by CLSI based assay
Pichia kudriavzevii = test: Antifungal activity against Candida krusei ATCC 34135 assessed as reduction in fungal growth incubated for 24 hrs by CLSI based broth microdilution method; assay type: functional
Lactobacillus gasseri = test: Antibacterial activity against Lactobacillus gasseri HM-400 assessed as reduction in bacterial growth by CLSI based assay
[4] = Selectivity index, ratio of CC50 for African green monkey Vero cells to MIC for antifungal activity against Candida glabrata ATCC MYA-2950; assay type: toxicity; conditions: read-out: Selectivity Index
[5] = Cytotoxicity against human Caco-2 cells assessed as cell viability up to 64 ug/ml incubated for 24 hrs by MTS assay; assay type: cell-based; conditions: dose <=64 µg/ml, read-out: Activity
[6] = Selectivity index, ratio of CC50 for African green monkey Vero cells to MIC for antifungal activity against Candida glabrata ATCC 66032; assay type: toxicity; conditions: read-out: Selectivity Index
[Candida] auris = Antifungal activity against fluconazole-resistant Candida auris 381 assessed as reduction in fungal growth incubated for 24 hrs by CLSI based broth microdilution method; assay type: functional; conditions: Candidozyma auris
Candida albicans [7] = test: Fungistatic activity against Candida albicans SS5314 at 5 to 10x MIC measured for 36 hrs by time kill assay; assay type: functional, organism-based
[8] = Selectivity index, ratio of maximum non-toxic concentration for human Caco-2 cells to MIC for antifungal activity against Candida parapsilosis ATCC 22019; assay type: toxicity; conditions: read-out: Selectivity Index
Nakaseomyces glabratus = test: Antifungal activity against Candida glabrata ATCC 66032 assessed as reduction in fungal growth incubated for 24 hrs by CLSI based broth microdilution method; assay type: functional
[9] = Selectivity index, ratio of CC50 for African green monkey Vero cells to MIC for antifungal activity against Cryptococcus neoformans NR41298; assay type: toxicity; conditions: read-out: Selectivity Index
Cryptococcus neoformans [10] = test: Antifungal activity against Cryptococcus neoformans NR41298 assessed as reduction in fungal growth incubated for 48 hrs by CLSI based broth microdilution method; assay type: functional
[11] = test system: Cryptococcus gattii species complex; test: Antifungal activity against Cryptococcus gattii NR43209 assessed as reduction in fungal growth incubated for 48 hrs by CLSI based broth microdilution method; assay type: functional, Cryptococcus bacillisporus
Aspergillus fumigatus = test: Antifungal activity against Aspergillus fumigatus NR 35304 assessed as reduction in fungal growth incubated for 24 hrs by CLSI based broth microdilution method; assay type: functional

Cc1nc(-c2ccc(C(C)(C)C)cc2)sc1-c1nnc(N[C@@H]2CCCC[C@@H]2N)o1 (relative stereo)
MIC (Cryptococcus neoformans [1]): 2 µg/mL (≈ 4.86 µM) | Activity (Candida albicans [2]): Active | selectivity ratio [3]: ≤ 64 | MIC (Lactobacillus crispatus): > 128 µg/mL | MIC (Pichia kudriavzevii): 2 µg/mL (≈ 4.86 µM) | MIC (Lactobacillus gasseri): 128 µg/mL (≈ 311 µM) | selectivity ratio [4]: ≤ 64 | viability at 24 h [5]: 100% | selectivity ratio [6]: ≤ 64 | MIC ([Candida] auris): 4 µg/mL (≈ 9.72 µM) | Activity (Candida albicans [7]): Active | selectivity ratio [8]: ≤ 64 | MIC (Nakaseomyces glabratus): 0.5 µg/mL (≈ 1.21 µM) | selectivity ratio [9]: ≤ 64 | MIC (Cryptococcus neoformans [10]): 2 µg/mL (≈ 4.86 µM) | MIC [11]: 1 µg/mL (≈ 2.43 µM) | MIC (Aspergillus fumigatus): 4 µg/mL (≈ 9.72 µM)
